Measured values as given in patent US20020032316A1, “Hapten-carrier conjugates for use in drug-abuse therapy and methods for preparation of same” (priority 1995, published 2002).
Like-named read-outs stand apart in the source and are kept apart here.

Experiments:
[1] = in vivo; cited from earlier work
[2] = cited from earlier work
[3] = HPLC analysis of methyl ester hydrolysis of succinylated norcocaine; conditions: 25° C.
[4] = cited from earlier work; for plasma half life: Henningfield (1995); for peak plasma concentration: in vivo
[5] = pre-incubation with 50-fold excess unlabeled nicotine
Method: Immune sera from the above experiment was incubated with [^3H]-nicotine and protein-G-conjugated Sepharose beads (Gammabind-G Sepharose, Pharmacia), which bind IgG in the sera samples. The antibody-bound [^3H]-nicotine was isolated by centrifugation of the beads and was detected by scintillation counting of the beads.

[6] = test system: antibodies in the rat sera binding to PS-5.4 HEL; conditions: sera of rats immunized with cocaine-rCTB conjugate
anti-cocaine antisera = test: Specificity competition ELISA: drugs inhibiting binding of antibodies to cocaine-HEL; conditions: pool of antisera of mice immunized with cocaine-CTB PS-5.53; varying concentrations
[7] = test system: eukaryotic cells expressing ganglioside GM1; format: cell-based
[8] = test system: antibodies in the sera binding to PS-55 HEL; test: Competition ELISA with free nicotine or cotinine; parameters: species or system mouse; conditions: sera of mice injected with PS-55 BSA
Method: To determine whether the induced antibodies are capable of recognizing the free nicotine molecule, a competition ELISA was performed. In this assay, free nicotine competes with PS-55 HEL coated to ELISA plates for the binding of antibodies in the sera. If the antibodies that have a high affinity for nicotine comprise most of the antibodies binding to the PS-55 HEL, then low concentrations of nicotine are capable of effectively inhibiting the antibody binding. For 3 out of 4 mice described above which were injected with PS-55 BSA, antibody binding to PS-55 HEL was inhibited by free nicotine (FIG. 25). Note that the presence of antibody specific for the conjugate alone would not be expected to interfere with the action of the anti-nicotine antibody.

mice = conditions: for total levels of cocaine in the brains of control mice: mouse, in vivo
[9] = Cocaine LD50 and time-to-death in immunized and naive mice; conditions: BALB/c, mouse, in vivo
Method: In these experiments, cocaine-immunized and control carrier-immunized mice are injected i.v. with cocaine at doses around the previously defined LD50. Ten mice are used at each point, and the data is analyzed using a Cochran-Mantel-Haenzel Chi-squared test.
In addition, a failure time model is used to analyze the time-to-death induced by cocaine. The extent to which the anti-cocaine antibodies increase both (a) the dose of cocaine required for lethality and (b) the time-to-death are measures of efficacy in this model. These provide a rapid and rigorous test of the in vivo efficacy of the antibodies.
The efficacy of therapeutic vaccination against cocaine was assessed by determining the lethal dose of cocaine (LD50) in immunized and naive animals. […] Each of the mice was bled at day 34 and serum antibody titers and competition with cocaine were assessed. […] For the LD50 experiment, 4-6 mice were used per group and each group was carefully matched for antibody titer and apparent affinity for free cocaine.

rats = test: Discrimination of cocaine from saline, 2-lever procedure; format: in vivo; conditions: Rattus norvegicus, ip; rats trained on 10 mg/kg cocaine i.p., cumulative dosing; read-out: ED50±95% C.I. for cocaine-appropriate responses
Description: After cocaine injections are given, the animals are required to press one of the levers (drug-appropriate lever) 10 times (FR 10) to obtain a food pellet; upon saline injections, they are required to press the other lever (saline-appropriate lever) 10 times to obtain a food pellet. When animals have learned to discriminate cocaine from saline, at least 90% of the total responses are made on the appropriate lever for several consecutive days. In order to incorporate a cumulative dosing procedure during later substitution test sessions, training sessions are made up of multiple components, each lasting for 10 min or until 10 FRs are completed, whichever occurred first.
Following training, substitution test sessions with different doses of cocaine (0.3-17.8 mg/kg) are conducted twice weekly, with training sessions on intervening days. Drug substitution test sessions consisted of four 10 min components, each preceded by a 15 min time-out period. During substitution tests, completion of 10 responses on either lever produce a food pellet. Incremental doses of cocaine are injected at the beginning of each of the 4 time-out periods. Overlapping ranges of cumulative doses are studied on different test days, permitting a seven-point cumulative dose-response curve to be determined in a single week. […]

CNCCCN1c2ccccc2CCc2ccccc21 [desipramine]
cocaine abstinence rate following treatment [1]: ≤ 70%

C[C@]12N[C@H](Cc3ccccc31)c1ccccc12 [MK-801]
increase of cocaine LD50 ([2]; alone): 1.3 fold | increase of cocaine LD50 ([2]; combined with propanolol): 1.4 fold

COC(=O)[C@H]1[C@@H](OC(=O)c2ccccc2)C[C@@H]2CC[C@H]1N2C(=O)CCC(=O)O [succinylated norcocaine, 3β-(Benzoyloxy)-8-succinoyl-8-azabicyclo[3.2.1]octane-2β-carboxylic acid methyl ester]
time for 5% degradation ([3]; pH 6): 1.30 years | time for 5% degradation ([3]; pH 8): 10.96 days

CN1CCCC1c1cccnc1 (stereo not shown) [nicotine, 1-Methyl-2-(3-pyridyl)pyrrolidine]
plasma half life [4]: approximately two | peak plasma concentration [4]: 25 to 50 ng/mL | inhibition of [^3H]-nicotine binding to antibodies [5]: completely inhibited the binding

CN1[C@H]2CC[C@@H]1[C@@H](C(=O)O)[C@@H](OC(=O)c1ccccc1)C2 [benzoylecgonine, 3β-(Benzoyloxy)-8-methyl-8-azabicyclo[3.2.1]octane-2β-carboxylic acid]
competition of rat sera [6]: none of the sera tested are able to be competed by benzoylecgonine | inhibition of binding of antibodies to cocaine-HEL (anti-cocaine antisera): at high concentrations

rCTB
binding to cells (flow cytometry) [7]: bound to eukaryotic cells expressing ganglioside GM1

CN1C(=O)CCC1c1cccnc1 (stereo not shown) [cotinine, N-Methyl-2-(3-pyridyl)-5-pyrrolidone]
plasma half life [4]: 19 h | competition for antibodies in the sera [8]: cannot compete with antibodies in any of the sera except at very high concentrations

COC(=O)[C@H]1[C@@H](OC(=O)c2ccccc2)C[C@@H]2CC[C@H]1N2C [cocaine, 3β-(Benzoyloxy)-8-methyl-8-azabicyclo[3.2.1]octane-2β-carboxylic acid methyl ester]
published peak plasma levels ([4]; in addicts, Ambre 1991, Cone 1995, Cone 1989): 0.3 to 1.5 µg/mL | peak plasma concentration [4]: 300 to 1000 ng/mL | time of peak cocaine levels (mice; after intranasal administration): 2 to 5 min | time of peak cocaine levels (mice; after intravenous injection): 0.25 min | total levels of cocaine in the brains of control mice (mice): 1538 ng/g | total levels of cocaine in the brains of control mice (mice; iv): 2260 ng/g | LD50 ([9]; ip): 20 mg/kg | LD50 ([9]; iv): 3 mg/kg | ED50 (rats): 2.14 ± 0.2 mg/kg
